The series is described as follows: in vitro. To be noted: human, hela cells, % viability.

As to `Oc1nccc(Oc2ccnc(Cl)n2)n1` [CBK000010], the viability (usually a read-out of living cells in per cent, often relative to untreated cells) at 28.5 h, 10 µM was 98.5%. Take `CCN(c1cc(N2CCCNCC2)ccc1NS(=O)(=O)c1cccc2cccnc12)S(C)(=O)=O` [CBK000014C]: the viability at 28.5 h, 10 µM is 80.1%. Regarding `OCCOc1cccc(-c2nnco2)c1` [CBK000033], the viability at 28.5 h, 10 µM was found to be 98.6%. The same measure, in the same setting: then `COC(=O)c1cc(=O)c2ccccc2o1` [CBK000064], with 91.8%; and `Cc1cccc2[nH]c(-c3ccccc3)nc12` [CBK000110], with 92.9%.

As to `COc1ccc(Cc2n[nH]c(=O)n2-c2ccccc2)cc1` [CBK000112], the viability at 28.5 h, 10 µM was 107%.

Consider `COc1ccc(-c2nc3cc(OC)ccc3[nH]2)cc1` [CBK000126], for which the viability at 28.5 h, 10 µM stood at 90.5%.

`CC(C)(C)OC(=O)N1CCN(c2ccc([N+](=O)[O-])cn2)CC1` [CBK000134]: the viability at 28.5 h, 10 µM is 95.6%.

As for `CC(C)(C)OC(=O)N1CCN(c2ncc([N+](=O)[O-])s2)CC1` [CBK000135], the viability at 28.5 h, 10 µM came out at 92.1%. `CC(C)(C)OC(=O)N1CCN(c2cc(NCc3ccccc3)ncn2)CC1` [CBK000137]: the viability at 28.5 h, 10 µM was found to be 94.7%. Turning to `O=C(Nc1ccc(-c2ccoc2)cc1C(=O)O)OCc1ccc([N+](=O)[O-])cc1` [CBK000141D], the viability at 28.5 h, 10 µM is 98.9%. On the same count and under the same terms, then `Fc1cccc(N2CCN(Cc3ccccc3)CC2)n1` [CBK000144], with 102%; and `Fc1cccc(NCc2ccccc2)n1` [CBK000149], with 94.9%. Consider `CC(C)(C)OC(=O)N1CCN(c2cncc(NCc3ccccc3)n2)CC1` [CBK000154], for which the viability at 28.5 h, 10 µM was 112%.

`Cc1ccc(NC(=O)c2cccnc2)c(C(=O)O)c1` [CBK000177]: the viability at 28.5 h, 10 µM came to 103%.

In the case of `O=C(O)CCn1c2ccccc2c2ccccc21` [CBK000208], the viability at 28.5 h, 10 µM was determined as 87.7%. Still for that read-out and setting: then `c1ccc2c(c1)CC(Oc1cncc(N3CCNCC3)n1)C2` [CBK000242G], with 106%. As to `O=C(O)CCCCn1c2c(c3ccccc31)CCCC2` [CBK000253], the viability at 28.5 h, 10 µM was found to be 98.9%. On the same count and under the same terms, the same measure for `Cc1nn(C)c(Oc2ccc3c(c2)CCCC3)c1[N+](=O)[O-]` [CBK000273]: 91.2%; for `Cc1ccc(Oc2c([N+](=O)[O-])c(C)nn2C)c(Br)c1` [CBK000283]: 90.6%; for `CN(Cc1ccccc1)c1nc(C(F)(F)F)cc(=O)[nH]1` [CBK000319]: 92%. The same measure, in the same setting: the same measure for `Oc1cc(C(F)(F)F)nc(N2CCc3ccccc3C2)n1` [CBK000344]: 82%; for `CC(=O)Nc1ccc(S(=O)(=O)Nc2ccnc(N3CCNCC3)n2)cc1` [CBK000363C]: 92.5%. As for `COc1ccc(OC)c(-c2ccc(NC(=O)c3ccc(Cl)cc3Cl)c(C(=O)O)c2)c1` [CBK000393D], the viability at 28.5 h, 10 µM was 90.8%. In the case of `COC(=O)c1cc(-c2ccccc2OCc2ccccc2)ccc1NC(=O)c1ccc(Cl)cc1Cl` [CBK000415], the viability at 28.5 h, 10 µM came to 88.5%. Still for that read-out and setting: then `COC(=O)c1cccc2c3c([nH]c12)CCCC3` [CBK000423], with 87.8%. Take `CC(C)(CN)CN(Cc1ccc(Cl)cc1Cl)C(=O)NCCc1c[nH]c2ccccc12` [CBK000460C]: the viability at 28.5 h, 10 µM was 89.4%. On the same count and under the same terms, the same measure for `CC(NC(=O)N(Cc1cccc2ccccc12)C1CCC(N)CC1)c1cccc2ccccc12` (centres unmarked) [CBK000482C]: 67.8%; for `CC(=O)Oc1cc(C(F)(F)F)nc(NCc2ccc(Cl)cc2)n1` [CBK000500]: 94.7%. Still for that read-out and setting: the same measure for `Oc1cc(C(F)(F)F)nc(Nc2ccccc2)n1` [CBK000517]: 89.3%. For `CC(C)(C)OC(=O)NCc1ccc2cccc(OCCO)c2n1` [CBK000585], the viability at 28.5 h, 10 µM worked out at 83.3%. On the same count and under the same terms, the same measure for `O=[N+]([O-])c1ccc(F)cc1NS(=O)(=O)c1ccccc1` [CBK000674]: 93.1%; for `NCCC(=O)N(CCc1cc(C(F)(F)F)cc(C(F)(F)F)c1)c1cccc2ccccc12` [CBK000695T]: 0%; for `NCCN(C(=O)CCc1cc(C(F)(F)F)cc(C(F)(F)F)c1)c1ccc2c(c1)OCO2` [CBK000701T]: 105%. Same read-out and setting: the same measure for `CSc1nccc(OCCOc2nccnc2N2CCNCC2)n1` [CBK000718G]: 104%; for `N#Cc1ccc(OCCO)cc1` [CBK000723]: 107%. Same read-out and setting: the same measure for `O=C(c1ccccc1)c1ccccc1OCCO` [CBK000728]: 116%.

For `COC(=O)Cc1nc(NS(=O)(=O)c2ccc(Oc3cccc(Cl)c3C#N)cc2)sc1C` [CBK000744], the viability at 28.5 h, 10 µM was determined as 98.3%. Consider `CCOC(=O)c1sc(NS(=O)(=O)c2cccc(Cl)c2C)nc1-c1ccccc1` [CBK000749], for which the viability at 28.5 h, 10 µM came to 92.7%. On the same count and under the same terms, then `COc1ccc(-n2nc(C)c3onc(C)c3c2=O)cc1` [CBK000853], with 101%.

On to `Cc1c(C)n(CC(=O)O)c2ccccc12` [CBK000884], for which the viability at 28.5 h, 10 µM is 97%.

Take `CCOC(=O)Cc1csc(NS(=O)(=O)c2cn(C)cn2)n1` [CBK000888]: the viability at 28.5 h, 10 µM is 112%.

Consider `Cc1cc(Cl)cc(Cl)c1S(=O)(=O)Nc1nc(-c2cccc([N+](=O)[O-])c2)cs1` [CBK000902], for which the viability at 28.5 h, 10 µM was found to be 111%. On to `CCn1nc(-c2ccccc2)nc2c(=O)n(C)c(=O)nc1-2` [CBK000921], for which the viability at 28.5 h, 10 µM (bulk resorufin, single well) is 92.1%. On to `CCCc1ccc(S(=O)(=O)Nc2nc(-c3cccc([N+](=O)[O-])c3)cs2)cc1` [CBK000987], for which the viability at 28.5 h, 10 µM is 88.1%. Turning to `CCc1csc(C(=Cc2ccc(OC)cc2)C(N)=O)n1` [CBK001010], the viability at 28.5 h, 10 µM amounted to 86.9%. Still for that read-out and setting: the same measure for `COc1ccc(CCCCN(C(=O)C(N)Cc2ccccc2)c2cccc3ccccc23)cc1OC` (centres unmarked) [CBK001032T]: 118%; for `CNCC(=O)N(CCc1cc(C(F)(F)F)cc(C(F)(F)F)c1)c1ccc2c(c1)OCO2` [CBK001038T]: 120%; for `CCOC(=O)CCC(=O)n1c2ccccc2c2ccccc21` [CBK001170]: 67.2%. On the same count and under the same terms, then `O=C(CN1CCOCC1)Nc1ccc(S(=O)(=O)Nc2cc(Cl)cc(Cl)c2)cc1` [CBK001239], with 89.1%; and `O=[N+]([O-])c1cc(S(=O)(=O)Nc2ccccc2)ccc1N1CCN2CCCC2C1` (centres unmarked) [CBK001248], with 87.7%; and `O=C(O)c1ccc2[nH]c3c(c2c1)CCCC3` [CBK001252], with 90.9%.

With `COc1cccc2cc(C3CN(C(=O)C(C)(C)NC(=O)OC(C)(C)C)CC3C(=O)O)oc12` (centres unmarked) [CBK001348], the viability at 28.5 h, 10 µM stood at 102%. The same measure, in the same setting: then `CN(c1cc(F)ccc1[N+](=O)[O-])S(C)(=O)=O` [CBK001365], with 82.1%; and `CC1CCN(c2ccc([N+](=O)[O-])c(N3CCC(C)CC3)c2)CC1` [CBK001367], with 92.5%. As to `CN(c1cc(F)ccc1[N+](=O)[O-])S(=O)(=O)c1ccccc1` [CBK001369], the viability at 28.5 h, 10 µM came to 97.5%. Still for that read-out and setting: the same measure for `CSc1nc(O)cc(C(F)(F)F)n1` [CBK001401]: 112%; for `N#Cc1ccccc1OCCO` [CBK001443]: 97.9%; for `COCCOc1ncccc1OCc1ccccc1` [CBK001456]: 92.9%.

The record behind these values is article PMC12040169 (PLOS Biology, 2025).
